In patent publication US7355074B2, “Compounds having aromatic rings and side-chain amide-functionality and a method for transporting monovalent anions across biological membranes using the same” (The University of Maryland, priority 2003, dated 2008):

What was measured:
Format in all cases: biochemical
[1] = pH-assisted fluorimetric transport assay with calixarene amides (HPTS-loaded liposomes); conditions: extravesicular Na, K or Cs chloride; ligand lipid ratios of up to 1:20
Method: The ability of 1 and 2 to mediate ion flux across a lipid bilayer was studied fluorimetrically. A solution of 1 or 2 was added to a suspension of EYPC large unilamellar vesicles (LUVs) containing the pH-sensitive dye pyranine. An NaOH solution was added to the extravesicular buffer to create a gradient of approximately one pH unit. The resulting electrostatic potential, caused by proton efflux from the liposomes, can be compensated by cation influx or anion efflux, as mediated by the exogenous ligand. Ion transport across the membrane was signaled by the increase in relative fluorescence that accompanied the rise in intravesicular pH.
Liposome Preparation. EYPC HPTS-Containing LUVs, egg yolk 1-α-phosphatidylcholine (EYPC, 60 mg, […]) was dissolved in a CHCl3MeOH mixture, the solution was evaporated under reduced pressure, and the resulting thin film was dried under high vacuum for 2 h. The lipid film was hydrated in 1.2 mL of phosphate buffer (10 mM sodium phosphage, pH=6.4, 75-100 mM MX, M=Na^+, K^+, Cs^+, X=[…], SO4^2−) containing 10 μM HPTS (pyranine 8-hydroxypyrene-1,3,6-trisulfonic acid trisodium salt) for 2 h. The LUV suspension (1 mL) was submitted to high-pressure extrusion at room temperature (2) extrusions through a 0.1 μM polycarbonate membrane afforded LUVs with a diameter of 100 nm). The LUV suspension was separated from extravesicular dye by size exclusion chromatography (SEC) stationary phase: Sephadex G-10, mobile phase:phosphate buffer) and diluted with the same phosphate buffer to give a stock solution with a lipid concentration of 11 mM (assuming 100% of lipid was incorporated into liposomes).
Fluorimetric Transport Assays. pH-Assisted Transport Assays. Typically, 100 μL of HPTS-loaded vesicles (stock solution) was suspended in 1.85 mL of the corresponding buffer and placed into a fluorimetric cell. HPTS emission at 510 nm was monitored with excitation wavelengths at 403 and 460 nm simultaneously. During the experiment, 20 μL of a 0-10 mM THF solution of the compound of interest was added through an injection port, followed by injection of 21 μL of 0.5 M aqueous NaOH. Addition of the NaOH caused a pH increase of approximately 1 pH unit in the extravesicular buffer. Maximal changes in dye emission were obtained at the end of each experiment by lysis of the liposomes with detergent (40 μL of 5% aqueous Triton x100). The final transport trace was obtained as a ratio of the emission intensities monitored at 460 and 403 nm and normalized to 100% of transport.

[2] = pH-stat fluorescent transport assay with oligophenoxyacetamides (HPTS-loaded liposomes); conditions: 100 mM NaCl inside and outside
Method: FIGS. 1A and 1B are derived from of pH-stat fluorescent assays with oligophenoxyacetamide compounds 1-6 described herein. Suspensions of EYPC LUVs containing the pH sensitive dye pyranine (ex 405 nm and 460 nm em 510 nm) in a phosphate buffer were used (0.5 mM of lipid, 10 mM NanH3-nPO4 n=1, 2, pH 6.4 100 mM NaCl inside and outside) (A) illustrates initial pseudo-first order rate constants in the presence of 5 μm of ionophores 1-6 (1 mol % injection of 20 μl of 0.5 mM DMSO solution of 1-6 into 1.9 mL of vesicular suspension was followed by injection of 21 μl of 0.5 M NaOH and final lysis of liposomes with Triton X-100; (B) illustrates initial pseudo-first order rate constants assessed for various concentrations of oligomeric ionophores 2-6. The same experimental protocol as in (A) was used. Legend for traces denotes use of oligocompounds 2, 3, 4, 5, 6.
(§1) Liposome Preparation for Fluorimetric Assays. Egg yolk L-α-phosphatidylcholine (EYPC ethanol solution, […], 79 μmol) was dissolved in a CHCl3/MeOH mixture, the solution was evaporated under reduced pressure and the resulting thin film was dried under high vacuum for 2 h. The lipid film was hydrated in 1.2 mL of phosphate buffer (10 mM sodium phosphate, pH=6.4, 75-100 mM MnX, M=N^+, K^+, X=Cl^−, SO4^2−, n=1,2) containing 10 μM HPTS (pyranine, 8-hydroxypyrene-1,3,6-trisulfonic acid trisodium salt) for 40 min. During hydration, the suspension was submitted to 5 freeze-thaw cycle (liquid nitrogen, water at rt). The large multilamellar liposome suspension (1 mL) was submitted to high-pressure extrusion at rt (21 extrusions through a 0.1 μm polycarbonate membrane afforded a suspension of LUVs with an average diameter of 100 nm). The LUV suspension was separated from extravesicular dye by size exclusion chromatography (SEC) (stationary phase: Sephadex G-10, mobile phase: phosphate buffer) and diluted with the same phosphate buffer to give a stock solution with a lipid concentration of 11 mM (assuming 100% of lipid was incorporated into liposomes).
pH-state transport assays. Typically, 100 μL of HPTS-loaded vesicles (stock solution) was suspended in 1.9 mL of the corresponding buffer and placed into a fluorimetric cell. The emission of HPTS at 510 nm was monitored with excitation wavelengths at 403 and 460 nm simultaneously. During the experiment, 20 μL of a 0-10 mM DMSO solution of the compounds of interest was added (through an injection port), followed by injection of 21 μL of 0.5 M aqueous NaOH. […] Maximal possible changes in dye emission were obtained at the end of each experiment by lysis of the liposomes with detergent (40 μL of 5% aqueous Triton X100). The final transport trace was obtained as a ratio of the emission intensities monitored at 460 and 403 nm and normalized to 100% of transport. Pseudo-first order rate constants were calculated from slopes of the plot of In([H^+ins]−[H^+out]) versus time, here [H^+ins] and [H^+out] are the intravesicular and extravesicular proton concentrations, respectively. The [H^+out] was assumed to remain constant over the course of the experiment, while [H^+ins] values were calculated for each point from the HPTS emission intensities according to the calibration equation pH=1.1684·log(Io/Il)+6.9807, where Io is the emission intensity with excitation at 460 nm and Il is emission intensity with excitation at 403 nm. The calibration was performed by measuring the HPTS emission intensities and the pH values of a […] HPTS solution in 10 mM phosphate buffer containing 100 mM NaCl (see FIG. s3). The absolute values for rate constants varied depending on the age of the vesicular solution and the actual stock solution of liposomes used.

[3] = pH changes in liposomes experiencing a Cl- gradient (oligophenoxyacetamides); conditions: NaCl-loaded liposomes in Na2SO4 buffer; for alkalinization of the vesicular compartment: equal amount (4 mol %)
Method: FIG. 2B illustrates alkanization of the vesicular aqueous compartment upon application of compounds 1-6 to a suspension of NaCl-containing vesicles in isosmomolar Na2SO4 buffer. Concentration of compounds 1-6 in the vesicular suspension was 20 μm (4 mol %). Legend for traces denotes use of oligocompounds 1, 2, 3, 4, 5, 6.
as §1
(§2) Analysis of pH changes in the liposomes experiencing a CT gradient. a) Outwardly directed gradient of Cl:HPTS-loaded vesicles (100 μL of the stock solution), filled with a saline phosphate buffer (10 mM sodium phosphate, pH 6.4, 100 mM NaCl) were suspended in 1.9 mL of an isosmotic phosphate sulfate buffer (10 mM sodium phosphate, pH 6.0, 75 mM Na2SO4) and placed into a fluorimetric cell. The emission of HPTS at 510 nm was monitored with excitation wavelengths at 403 and 460 nm simultaneously. During the experiment, 20 μL of a 0-2 mM DMSO solution of the compound of interest was added through an injection port. Intravesicular pH values were obtained as described for pH-stat transport assays. At the end of experiment, the aqueous compartment of liposomes was equilibrated with extravesicular solution by lysis of liposomes with detergent (40 μL of 5% aqueous Triton X100). b) Inwardly directed gradient of Cl:HPTS-loaded vesicles (100 μL of the stock solution), filled with a isoosimomolar sulfate phosphate buffer (10 mM sodium phosphate, pH 6.0, 75 mM Na2SO4) were suspended in 1.9 mL of an isosmotic phosphate saline buffer (10 mM sodium phosphate, pH 6.4, 100 mM NaCl) and placed into a fluorimetric cell. Further analysis was conducted as described for the case of an outwardly directed gradient of […]. Analysis of the electrostatic potential on the surface of liposomes. LUVs (100 μL of stock solution, 100 mM KCl inside and outside or 75 mM Na2SO4 inside and outside) were suspended in 1.9 mL of 100 mM NaCl buffer containing 60 nM safranin O (a potential-sensitive dye). Safranin O emission was monitored at 580 nm with excitation at 520 nm. During the course of the experiment, 20 μL of a 0-0.12 mM DMSO solution of valinomycin or 0-2 mM of 3-8 DMSO solution was added. Experiments were completed by injection of 20 μL of 1 mM aqueous solution of the defect-inductive peptide melittin.

[4] = liposome potential assay with safranin O; conditions: Na2SO4 vesicles in NaCl buffer (conditions of the trimer)
Method: FIG. 3 illustrates liposome potential assays. Suspension of EYPC LUVs in phosphate buffer was used (10 m M Nan H3-n PO4, n=1, 2, pH 6.4, 100 m M KCl or 75 m M Na2 H3-n PO4, n=1, 2, pH 6.4, 100 m M KCl or 75 m M NA2 SO4 inside and 100 m M NaCl, 60 nM safranin O, ex 480 nm, em 520 nm, outside). Legend for trace denotes the formation of potential in: —KCl vesicles upon application of valinmycin·Na2SO4 vesicles upon application of 3, —KCl vesicles upon application of 3, —Na2SO4 vesicles upon application of valinomycin.
as §2

## CNC(=O)COc1c2cccc1Cc1cccc(c1OCC(=O)NC)Cc1cccc(c1OCC(=O)NC)Cc1cccc(c1OCC(=O)NC)C2 [Calix[4]arene tetramethylamide 1, Calix[4]arene tetramethylamide]
[1]
  transport activity: little transport activity

## CCCCNC(=O)COc1ccccc1Cc1ccccc1OCC(=O)NCCCC [Dimer 2, bis-(N-butyl-2-phenoxyacetamide)]
[2]; below 4 mol % (20 μm)
  transport activity: moderate transport activity
[3]
  alkalinization of the vesicular compartment: Alkanization of the vesicular compartment was observed

## CCCCNC(=O)COc1ccccc1Cc1cccc(Cc2cccc(Cc3cccc(Cc4cccc(Cc5ccccc5OCC(=O)NCCCC)c4OCC(=O)NCCCC)c3OCC(=O)NCCCC)c2OCC(=O)NCCCC)c1OCC(=O)NCCCC [hexamer 6, Hexakis-(N-butyl-2-phenoxyacetamide)]
[3]
  alkalinization of the vesicular compartment: Alkanization of the vesicular compartment was observed

## CCCCNC(=O)COc1ccccc1Cc1cccc(Cc2cccc(Cc3cccc(Cc4ccccc4OCC(=O)NCCCC)c3OCC(=O)NCCCC)c2OCC(=O)NCCCC)c1OCC(=O)NCCCC [pentamer 5, Pentakis-(N-butyl-2-phenoxyacetamide)]
[3]
  alkalinization of the vesicular compartment: Alkanization of the vesicular compartment was observed

## CCCCNC(=O)COc1ccccc1Cc1cccc(Cc2cccc(Cc3ccccc3OCC(=O)NCCCC)c2OCC(=O)NCCCC)c1OCC(=O)NCCCC [tetramer 4, Tetrakis-(N-butyl-2-phenoxyacetamide)]
[2]
  relative transport activity within the series 1-6: generally more effective than pentamer 5 and hexamer 6
[3]; 4 mol %
  pH gradient generated: the same pH gradient
  time to reach the pH gradient: 4.5 minutes
[3]
  relative ability to alter the pH in liposomes under a Cl− gradient: less active than trimer 3

## CC(C)[C@@H]1NC(=O)[C@H](C)OC(=O)[C@@H](C(C)C)NC(=O)[C@@H](C(C)C)OC(=O)[C@H](C(C)C)NC(=O)[C@H](C)OC(=O)[C@@H](C(C)C)NC(=O)[C@@H](C(C)C)OC(=O)[C@H](C(C)C)NC(=O)[C@H](C)OC(=O)[C@@H](C(C)C)NC(=O)[C@@H](C(C)C)OC1=O [valinomycin, reference compound]
[4]
  ability to create a transmembrane potential: cannot create a potential
